Converted amounts (≈) assume the structure as drawn.

For assay [1], the system named is Trichophyton mentagrophytes SM-110. The assay can be described thus: Antifungal activity evaluation test: minimum inhibitory concentration (MIC), broth dilution by reference to CLSI M38-A2. The format is cell-based. The settings on record: SM110, read-out: MIC (T. menta.). As for the experimental part: (§1) The minimum inhibitory concentration (MIC) for Trichophyton mentagrophytes and Trichophyton rubrum was measured by the following procedure by reference to Clinical and Laboratory standards Institute (CLSI) guidelines M38-A2. Reference document for the measurement method: National Committee for a Clinical Laboratory Standards. Reference method for broth dilution antifungal susceptibility testing of filamentous fungi. Approved standard Second edition M38-A2. Wayne, Pa.: National Committee for a Clinical Laboratory Standards, 2008. • Test compound solution: A test compound was dissolved in dimethyl sulfoxide (DMSO) at a concentration of 2.5 mg/mL to give a stock solution. The stock solution was appropriately diluted with DMSO to prepare a 2-fold dilution series. As control compounds, terbinafine and amorolfine were used. • Test strains: Trichophyton mentagrophytes SM-110 and Trichophyton rubrum KD-1130 were used. • Preparation of fungal culture to be inoculated: The above-mentioned test strain was suspended in 0.05% Tween 80-containing saline, and the fungi of the genus Trichophyton were prepared to a fungal concentration of 1×10^6 cells/mL by using a hemocytometer. Then, using MOPS-buffered RPMI 1640 medium (pH 7.0) as a test medium, a fungal culture of the fungi of the genus Trichophyton was diluted 250-fold (4×10^3 cells/mL) to give a fungal culture for inoculation. • MIC measurement of genus Trichophyton fungi: MOPS-buffered RPMI 1640 medium (pH 7.0) was dispensed by 100 μL to given wells of a 96 well U-bottom microplate. Then, the test compound solution (2 μL) was added, the mixture was sufficiently stirred by a plate mixer. The fungal culture (100 μL) was inoculated and the mixture was cultured at 35° C. for 4 days (final fungal concentration: 2×10^3 cells/mL). After the culture, the minimum drug concentration of a well in which a growth inhibitory action of not less than 80% was visually observed as compared to a growth control was taken as a minimum inhibitory concentration (MIC: μg/mL).
(§2) The abbreviations in the Tables mean the following fungi and compounds. • T. menta.: Trichophyton mentagrophytes • T. rubrum: Trichophyton rubrum • TBF: terbinafine • AMF: amorolfine

For assay [2], the system named is Trichophyton rubrum KD-1130. The description is as above. The settings on record: KD1130, read-out: MIC (T. rubrum). In kind it is cell-based. As to the method: as §1, §2

`COc1cc(F)c(F)cc1-c1cccnc1Oc1ccc(C(F)F)nc1` [I-76, 3-(4,5-difluoro-2-methoxyphenyl)-2-{[6-(difluoromethyl)pyridin-3-yl]oxy}pyridine]: the MIC in assay [1] and in assay [2] was no more than 0.1 µg/mL each time.

For the compound `COc1cc(-c2cccnc2Oc2ccc(C(F)F)nc2)c(F)cc1F` [I-77, 3-(2,4-difluoro-5-methoxyphenyl)-2-{[6-(difluoromethyl)pyridin-3-yl]oxy}pyridine], the MIC in assay [1] and in assay [2] was no more than 0.1 µg/mL throughout.

For the compound `COc1ccc(-c2cccnc2Oc2ccc(C(F)F)nc2)c(OC)n1` [I-78, 2′-{[6-(difluoromethyl)pyridin-3-yl]oxy}-2,6-dimethoxy-3,3′-bipyridine], the MIC in assay [1] and in assay [2] was no more than 0.1 µg/mL each time.

Take `COc1ccccc1-c1cccnc1Oc1ccc(C(F)(F)CO)nc1` [I-79, 2,2-difluoro-2-(5-{[3-(2-methoxyphenyl)pyridin-2-yl]oxy}pyridin-2-yl)ethanol]: the MIC (in general, the smallest concentration in the dilution series that meets the test's criterion for growth inhibition) was 0.2 to 0.78 µg/mL (≈ 0.558 to 2.18 µM) in assay [1] and 1.56 to 6.25 µg/mL (≈ 4.35 to 17.4 µM) in assay [2].

On to `COc1ccccc1-c1cccnc1Oc1ccc(C(F)(F)COS(=O)(=O)C(F)(F)F)nc1` [I-80, 2,2-difluoro-2-(5-{[3-(2-methoxyphenyl)pyridin-2-yl]oxy}pyridin-2-yl)ethyl trifluoromethanesulfonate], for which the MIC in assay [1] and in assay [2] was 0.2 to 0.78 µg/mL each time.

For `COc1ccccc1-c1cccnc1Oc1ccc(C(C)(F)F)nc1` [I-81, 2-{[6-(1,1-difluoroethyl)pyridin-3-yl]oxy}-3-(2-methoxyphenyl)pyridine], the MIC in assay [1] and in assay [2] was no more than 0.1 µg/mL in each case.

For `COc1cc(F)ccc1-c1cccnc1Oc1ccc(C(C)(F)F)nc1` [I-82], the MIC in assay [1] and in assay [2] was no more than 0.1 µg/mL throughout.

`COc1ccc(F)cc1-c1cccnc1Oc1ccc(C(C)(F)F)nc1` [I-83, 2-{[6-(1,1-difluoroethyl)pyridin-3-yl]oxy}-3-(5-fluoro-2-methoxyphenyl)pyridine]: the MIC in assay [1] and in assay [2] was no more than 0.1 µg/mL throughout.

As for `COc1ccc(OC)c(-c2cccnc2Oc2ccc(C(C)(F)F)nc2)c1` [I-84, 2-{[6-(1,1-difluoroethyl)pyridin-3-yl]oxy}-3-(2,5-dimethoxyphenyl)pyridine], the MIC in assay [1] and in assay [2] was no more than 0.1 µg/mL in each case.

`COc1cc(-c2cccnc2Oc2ccc(C(C)(F)F)nc2)c(F)cc1F` [I-85]: the MIC in assay [1] and in assay [2] was no more than 0.1 µg/mL in each case.

Regarding `CC(F)(F)c1ccc(Oc2ncccc2-c2ccccc2C(F)F)cn1` [I-86, 2-{[6-(1,1-difluoroethyl)pyridin-3-yl]oxy}-3-[2-(difluoromethyl)phenyl]pyridine], the MIC in assay [1] and in assay [2] was 0.2 to 0.78 µg/mL (≈ 0.552 to 2.15 µM) throughout.

For `CC(F)(F)c1ccc(Oc2ncccc2-c2cccc(F)c2C#N)cn1` [I-87, 2-(2-{[6-(1,1-difluoroethyl)pyridin-3-yl]oxy}pyridin-3-yl)-6-fluorobenzonitrile], the MIC in assay [1] and in assay [2] was 0.2 to 0.78 µg/mL (≈ 0.563 to 2.2 µM) throughout.

As for `COc1ncccc1-c1cccnc1Oc1ccc(C(C)(F)F)nc1` [I-88, 2-{[6-(1,1-difluoroethyl)pyridin-3-yl]oxy}-2′-methoxy-3,3′-bipyridine], the MIC in assay [1] and in assay [2] was no more than 0.1 µg/mL each time.

For the compound `COc1cnccc1-c1cccnc1Oc1ccc(C(C)(F)F)nc1` [I-89, 2-{[6-(1,1-difluoroethyl)pyridin-3-yl]oxy}-3′-methoxy-3,4′-bipyridine], the MIC in assay [1] and in assay [2] was 0.2 to 0.78 µg/mL (≈ 0.583 to 2.27 µM) in each case.

With `COc1ccncc1-c1cccnc1Oc1ccc(C(C)(F)F)nc1` [I-90, 2-{[6-(1,1-difluoroethyl)pyridin-3-yl]oxy}-4′-methoxy-3,3′-bipyridine], the MIC in assay [1] and in assay [2] was 0.2 to 0.78 µg/mL (≈ 0.583 to 2.27 µM) throughout.

In the case of `Cc1ccncc1-c1cccnc1Oc1ccc(C(C)(F)F)nc1` [I-91, 2-{[6-(1,1-difluoroethyl)pyridin-3-yl]oxy}-4′-methyl-3,3′-bipyridine], the MIC in assay [1] and in assay [2] was 0.2 to 0.78 µg/mL (≈ 0.611 to 2.38 µM) in each case.

For the compound `CC(F)(F)c1ccc(Oc2ncccc2-c2ccncc2F)cn1` [I-92, 2-{[6-(1,1-difluoroethyl)pyridin-3-yl]oxy}-3′-fluoro-3,4′-bipyridine], the MIC in assay [1] and in assay [2] was 0.2 to 0.78 µg/mL (≈ 0.604 to 2.35 µM) in each case.

Consider `Cc1cncc(-c2cccnc2Oc2ccc(C(C)(F)F)nc2)c1` [I-93, 2-{[6-(1,1-difluoroethyl)pyridin-3-yl]oxy}-5′-methyl-3,3′-bipyridine], for which the MIC in assay [1] and in assay [2] was 0.2 to 0.78 µg/mL (≈ 0.611 to 2.38 µM) throughout.

With `COc1ccc(-c2cccnc2Oc2ccc(C(C)(F)F)nc2)c(OC)n1` [I-94, 2′-{[6-(1,1-difluoroethyl)pyridin-3-yl]oxy}-2,6-dimethoxy-3,3′-bipyridine], the MIC in assay [1] and in assay [2] was no more than 0.1 µg/mL throughout.

Turning to `COc1cccc(-c2cccnc2Oc2ccc(C(C)(F)F)nc2)n1` [I-95, 2′-{[6-(1,1-difluoroethyl)pyridin-3-yl]oxy}-6-methoxy-2,3′-bipyridine], the MIC in assay [1] and in assay [2] was 0.2 to 0.78 µg/mL (≈ 0.583 to 2.27 µM) throughout.

`COc1ccc(OC)c(-c2cccnc2Oc2ccc(C(C)(F)F)nc2)n1` [I-96, 2′-{[6-(1,1-difluoroethyl)pyridin-3-yl]oxy}-3,6-dimethoxy-2,3′-bipyridine]: the MIC in assay [1] and in assay [2] was no more than 0.1 µg/mL in each case.

`CC(F)(F)c1ccc(Oc2ncccc2-c2cncc(F)c2Cl)cn1` [I-97, 4′-chloro-2-{[6-(1,1-difluoroethyl)pyridin-3-yl]oxy}-5′-fluoro-3,3′-bipyridine]: the MIC in assay [1] and in assay [2] was 0.2 to 0.78 µg/mL (≈ 0.547 to 2.13 µM) each time.

`COc1c(F)cncc1-c1cccnc1Oc1ccc(C(C)(F)F)nc1` [I-98, 2-{[6-(1,1-difluoroethyl)pyridin-3-yl]oxy}-5′-fluoro-4′-methoxy-3,3′-bipyridine]: the MIC in assay [1] and in assay [2] was 0.2 to 0.78 µg/mL (≈ 0.554 to 2.16 µM) in each case.

Regarding `Cc1c(F)cncc1-c1cccnc1Oc1ccc(C(C)(F)F)nc1` [I-99, 2-{[6-(1,1-difluoroethyl)pyridin-3-yl]oxy}-5′-fluoro-4′-methyl-3,3′-bipyridine], the MIC in assay [1] and in assay [2] was 0.2 to 0.78 µg/mL (≈ 0.579 to 2.26 µM) in each case.

`COc1c(Cl)cncc1-c1cccnc1Oc1ccc(C(C)(F)F)nc1` [I-100, 5′-chloro-2-{[6-(1,1-difluoroethyl)pyridin-3-yl]oxy}-4′-methoxy-3,3′-bipyridine]: the MIC in assay [1] and in assay [2] was no more than 0.1 µg/mL throughout.

As for `Cc1nsc(C)c1-c1cccnc1Oc1ccc(C(C)(F)F)nc1` [I-101, 4-(2-{[6-(1,1-difluoroethyl)pyridin-3-yl]oxy}pyridin-3-yl)-3,5′-dimethylisothiazole], the MIC in assay [1] and in assay [2] was 0.2 to 0.78 µg/mL (≈ 0.576 to 2.25 µM) in each case.

`Cc1noc(C)c1-c1cccnc1Oc1ccc(C(C)(F)F)nc1` [I-102]: the MIC in assay [1] and in assay [2] was 0.2 to 0.78 µg/mL (≈ 0.604 to 2.35 µM) throughout.

On to `Cc1noc(-c2cccnc2Oc2ccc(C(C)(F)F)nc2)c1Cl` [I-104, 4-chloro-5-(2-{[6-(1,1-difluoroethyl)pyridin-3-yl]oxy}pyridin-3-yl)-3-methylisoxazole], for which the MIC in assay [1] and in assay [2] was 0.2 to 0.78 µg/mL (≈ 0.569 to 2.22 µM) each time.

With `CC(F)(F)c1ccc(Oc2ncccc2-c2cccnc2N2CCCC2)cn1` [I-105], the MIC in assay [1] and in assay [2] was 1.56 to 6.25 µg/mL (≈ 4.08 to 16.3 µM) each time.

For the compound `CC(F)(F)c1ccc(Oc2ncccc2-c2cccnc2-n2ccnc2)cn1` [I-106, 2-{[6-(1,1-difluoroethyl)pyridin-3-yl]oxy}-2′-(1H-imidazol-1-yl)-3,3′-bipyridine], the MIC in assay [1] and in assay [2] was 1.56 to 6.25 µg/mL (≈ 4.11 to 16.5 µM) in each case.

As for `CC(F)(F)c1ccc(Oc2ncccc2-c2cccnc2-n2cccn2)cn1` [I-107, 2-{[6-(1,1-difluoroethyl)pyridin-3-yl]oxy}-2′-(1H-pyrazol-1-yl)-3,3′-bipyridine], the MIC in assay [1] and in assay [2] was 1.56 to 6.25 µg/mL (≈ 4.11 to 16.5 µM) each time.

As to `CC(F)(F)c1ccc(Oc2ncccc2-c2ccnc3ccccc23)cn1` [I-108, 4-(2-{[6-(1,1-difluoroethyl)pyridin-3-yl]oxy}pyridin-3-yl)quinoline], the results for the MIC in assay [1] and in assay [2] were no more than 0.1 µg/mL and 0.2 to 0.78 µg/mL (≈ 0.55 to 2.15 µM), respectively.

In the case of `CC(F)(F)c1ccc(Oc2ncccc2-c2cncc3ccccc23)cn1` [I-109, 4-(2-{[6-(1,1-difluoroethyl)pyridin-3-yl]oxy}pyridin-3-yl)isoquinoline], the MIC in assay [1] and in assay [2] was no more than 0.1 µg/mL each time.

`CC(F)(F)c1ccc(Oc2ncccc2-c2cccc3nccnc23)cn1` [I-110, 5-(2-{[6-(1,1-difluoroethyl)pyridin-3-yl]oxy}pyridin-3-yl)quinoxaline]: the MIC in assay [1] is no more than 0.1 µg/mL; in assay [2], 0.2 to 0.78 µg/mL (≈ 0.549 to 2.14 µM).

For `CC(F)(F)c1ccc(Oc2ncccc2-c2cncc3nccnc23)cn1` [I-111, 8-(2-{[6-(1,1-difluoroethyl)pyridin-3-yl]oxy}pyridin-3-yl)pyrido[3,4-b]pyrazine], the MIC in assay [1] and in assay [2] was 0.2 to 0.78 µg/mL (≈ 0.547 to 2.13 µM) throughout.

The values are drawn from patent US10647675B2 (priority 2015, dated 2020).
